Data reported in patent publication US20210236657A1, “NERVE-SPECIFIC FLUOROPHORE FORMULATIONS FOR DIRECT AND SYSTEMIC ADMINISTRATION” (OREGON HEALTH & SCIENCE UNIVERSITY, priority 2018, published 2021).

What was measured:
[1] = LGW01-08 solubility and loading in formulations (spectrophotometric quantification); format: physicochemical
Description: Based on the solubility of the nerve specific dye, liposomes sphingomyelin cholesterol (55:45), a FDA approved lipid mix was considered first for encapsulation of the agent as the lipid vesicles have both the lipid bilayer and hydrophilic core. Two common methods for preparation of liposomes are passive and pH gradient method. For passive loading method, both LGW01-08 and lipids were dissolved in a mixture of chloroform and methanol (70:30) and subjected to rotary evaporation under vacuum. […]
The next delivery platform which could increase the solubility of the nerve dye without compromising the nerve specificity was micelles. […] Commercially available (A-B-A block), PLURONIC® ethylene oxide-propylene oxide block co-polymer capable of self-assembly to form micelle was evaluated for encapsulating the nerve dye. […] The supernatant was passed through a 0.22μ filter and analyzed for nerve dye loading.
In order to achieve higher encapsulation, two more polymeric micelle platforms: Poly(ethylene glycol)(2 k)-block-poly(D,L-lactic acid) (1.8 k) (PEG-b-PLA) and Distearyl-phosphatidylethanolamine-PEG2000 (DSPE-PEG) were evaluated. […] Triplicate samples were prepared for quantification by diluting the complex 100-fold in 10% triton solution. […]
HP-β-CD complex was prepared by the solvent casting method. […] Triplicate samples were prepared for quantification by diluting the complex 100-fold in 10% triton solution. […]

[2] = tested on: brachial plexus and sciatic nerves; assay: Fluorescence imaging time course after systemic administration; format: in vivo, mice; conditions: 2 mg/kg, 24 hours after systemic administration, all formulations
Description: Drug release pharmacokinetics (PK) and biodistribution (BioD) studies were completed in mice systemically administered DSPE-PEG micelle, cyclodextrin or co-solvent formulated LGW01-08 for equivalent comparison, explained as follows. […] Following blood collection via cardiac puncture, fluorescence and color images were acquired of the brain, lungs, liver, stomach, intestines, pancreas, spleen, kidney, bladder, brachial plexus, and sciatic nerves (n=3 mice per time point per formulation). Additionally, brain, lung, heart, liver, and kidney tissues were collected for liquid chromatography mass spectroscopy (LCMS/MS) analysis (n=5 mice per time point per formulation). The pharmacokinetic parameters were calculated from blood uptake kinetics data by non-compartmental analysis using Phoenix 64 (Certara, Princeton, N.J.), including the area under the concentration versus time curve from 0 to ∞ (AUC0-∞), plasma volume of distribution (Vd), clearance (CL) and half-life (t1/2). Nerve specific contrast and tissue biodistribution intensities were assessed for all initial testing, PK, BioD, and PD studies using the intraoperative fluorescence imaging systems to collect images of the nerves and surrounding tissue as well as the additional tissues for biodistribution assessment. Additional unstained control animals were imaged to assess tissue autofluorescence. […]

[3] = tested on: brachial plexus and sciatic nerves; assay: Dose ranging pharmacodynamics imaging studies; format: in vivo, mice; conditions: two hours post injection
Description: Following PK studies to assess the maximum nerve signal to background ratio (SBR) for LGW1-08 in each formulation (2 hours), dose response pharmacodynamic (PD) studies were completed in mice using a dose range up to the MTD: 0.1, 0.2, 0.3, 0.6, 1, 1.5, 2, 2.5, and 3 mg/kg (n=3 mice per dose per formulation).
Nerve specific contrast and tissue biodistribution intensities were assessed for all initial testing, PK, BioD, and PD studies using the intraoperative fluorescence imaging systems to collect images of the nerves and surrounding tissue as well as the additional tissues for biodistribution assessment. Additional unstained control animals were imaged to assess tissue autofluorescence.
Custom written MatLab code was used to analyze the tissue specific fluorescence where regions of interest (ROIs) were selected using the white light images. These ROIs were then analyzed on the co-registered matched fluorescence images permitting assessment of the mean tissue intensities and nerve signal to background ratios. Intensity measurements were divided by the exposure time to obtain normalized intensity per second measurements.

[4] = tested on: brachial plexus and sciatic nerves; assay: Formulation nerve-specificity screening after systemic administration; format: in vivo, mice; conditions: preclinical mouse models
Description: Ox4 and LGW01-08 solubilized in each formulation were screened in mice following systemic administration for nerve specificity. 200 nmol of LGW01-08 in 100 μL of the four prepared formulations were administered intravenously to n=3 mice 4 hours before nerve imaging. The four hour fluorophore to imaging window had been previously shown to provide the highest nerve to background tissue fluorescence for Oxazine 4 and several other nerve specific fluorophores. Gibbs-Strauss et al. Molecular imaging 10, 91-101 (2011); Park et al. Theranostics 4, 823-833 (2014); Barth & Gibbs. Theranostics 7, 573-593 (2017). Uninjected animals were used for all control images (n=3 mice or 12 nerve sites/formulation).
Intraoperative Fluorescence Imaging Systems. A custom-built small animal imaging system capable of real-time color and fluorescence imaging was used to acquire rodent in vivo images. The imaging system consisted of a QImaging EXi Blue monochrome camera (Surrey, British Columbia, CA) for fluorescence detection with a removable Bayer filter for collecting co-registered color and fluorescence images. […] For fluorescence excitation, the PhotoFluor II was filtered with a 620±30 nm bandpass excitation filter. Resulting fluorescence was collected with a 700±37.5 nm bandpass emission filter for image collection. […] Camera exposure times ranged from 10-2000 ms for fluorescence image collection. […]

[5] = Pharmacokinetics and biodistribution by LCMS/MS; format: in vivo, mice; conditions: 2 mg/kg
Description: Drug release pharmacokinetics (PK) and biodistribution (BioD) studies were completed in mice systemically administered DSPE-PEG micelle, cyclodextrin or co-solvent formulated LGW01-08 for equivalent comparison, explained as follows. Formulated LGW1-08 was injected at a 2 mg/kg dose and blood collection was completed at the time points of 0, 0.5, 1, 2, 4, 8, and 24 hours post injection (n=5 mice per time point per formulation). Following blood collection via cardiac puncture, fluorescence and color images were acquired of the brain, lungs, liver, stomach, intestines, pancreas, spleen, kidney, bladder, brachial plexus, and sciatic nerves (n=3 mice per time point per formulation). Additionally, brain, lung, heart, liver, and kidney tissues were collected for liquid chromatography mass spectroscopy (LCMS/MS) analysis (n=5 mice per time point per formulation). The pharmacokinetic parameters were calculated from blood uptake kinetics data by non-compartmental analysis using Phoenix 64 (Certara, Princeton, N.J.), including the area under the concentration versus time curve from 0 to ∞ (AUC0-∞), plasma volume of distribution (Vd), clearance (CL) and half-life (t1/2).

[6] = tested on: nerve; conditions: Park et al. Theranostics 4, 823-833 (2014); cited from earlier work
[7] = DSPE-PEG micelle and cyclodextrin formulations

Compound	solubility [1]	nerve fluorescence signal intensities [2]	nerve SBRs across all doses tested ([3]; 0.1-3 mg/kg)	dose at which fluorescence intensity values were highest [3, 7]	fluorescence intensity values at the 0.1 mg/kg dose [3, 7]	dose up to which nerve to adipose background ratios increased [3]	dose up to which nerve to muscle background ratios increased [3]	nerve specificity following systemic administration [4]	blood concentrations over time ([5]; all formulations)	LGW01-08 cleared from the tissue ([5]; by 4 hours post injection)	nerve specificity [6]
CCNc1cc2oc3cc(=[N+](CC)CC)ccc-3nc2cc1C [LGW1-08, N-ethyl-N-(7-(ethylamino)-8-methyl-3H-phenoxazin-3-ylidene)ethanaminium]	250 µg/mL	close to baseline autofluorescence levels	No significant difference	2.5 mg/kg	decreased to autofluorescence levels	1.5 mg/kg	0.6 mg/kg	high nerve specificity	decreased quickly	90-99%	
Oxazine 4 perchlorate											high nerve-specificity
